Where a SMILES comes first, the peptide text is derived from it. [ ]: non-standard residue; d: D form.
Legend:
[1] = Stability in Rat Whole Blood at 37° C., HPLC; assay type: in vitro ADME; set-up: half-life: dose or concentration left out as unconfirmed; conditions: for HPLC AREA: rat whole blood 37° C.
Method: Eluent: A=CH3 CN B=Ammonium Acetate 0.01 M pH 6
Stock solution of the peptide is prepared at a concentration of 1.lmg/ml and dissolved in 10% CH3 CN/H2 O.
Rat Whole Blood (EDTA) is spiked with the peptide to give a concentration of […].
Same concentration of 10% CH3 CN/H2 O is also spiked to Rat Whole Blood (EDTA) as a control blank.
Aliquotes of […] are taken (in duplicate) of both spiked and control blanks at the following times:
FOR BLANK BLOOD: 0', 90'.
Each aliquoted samples are centrifuged at 4° C., 4400 rpm for 10 minutes.
3. Extraction Procedure: Liquid--Liquid Extraction
For each plasma sample, 100 μl of plasma are transferred to an eppendorf vial and 200 μl of acetonitrile added to it. The mixture is vortexed for 30 seconds and centrifuged at 4° C., 5 minutes 14000 rpm (Centra MP4R centrifuge, rotor # IEC 851). 200 μl of supernatant are transferred to another vial and evaporated to dryness with the Speed vac Plus (Savant SC-110A). The dried sample is reconstituted with […] of Mobile phase and an aliquote of this is injected to HPLC(high pressure liquid chromatography) for analysis.

T and B cells in spleen = assay: In vivo/ex vivo mitogenic proliferation of T and B cells (spleen); set-up: species or system C57BL/6 mice; conditions: FIGS. 1A-1D
Method: (§1) C57BL.backslash.6 mice are treated with 0, 50, 100, 200, and 300 mg/kg of drug (in saline) for 4 consecutive days. Blood is taken by cardiac puncture on day 5, and the lymphocytes are isolated from spleen in the following manner:
(§2) The spleen is aseptically removed and mashed by pressing against a steel strainer with a rubber plunger. The cell suspension is separated from the clumps by letting them settle at the bottom of the tube. The cell suspension is then separated on a Lymphocyte M layer and the interface is recovered and resuspended in media.
2. Mitogenic proliferation of T and B cells (spleen)

NK cells = assay: Functional in vivo/ex vivo NK cell assay, spleen cells, effector:target ratio 100:1; set-up: species or system mice; conditions: for NK cell assay, % response of CTL: CTL = control
Method: as §1, §2
Important in immunosurveillance, NK cells are capable of lysing tumors, virus-infected or embryo-derived cells in vitro spontaneously without prior sensitization. Immunomodulators are evaluated using murine splenocytes and human peripheral blood mononuclear leukocytes.
Spleen cells were used to test for NK activity at a effector:target ratio of 100:1.

NCCCC[C@@H](N)C(=O)N[C@@H](CC(N)=O)C(=O)N1CCC[C@H]1C(=O)N[C@@H](Cc1ccc(O)cc1)C(=O)O [PEPTIDE #5, H-(D-Lys)-Asn-Pro-Tyr-OH] (H-[dK]NPY-OH)
HPLC AREA ([1]; 0 min): 2471958 | HPLC AREA ([1]; 5 min): 2362251.2 | HPLC AREA ([1]; 10 min): 2386700 | HPLC AREA ([1]; 15 min): 2965610 | HPLC AREA ([1]; 30 min): 2038700.5 | HPLC AREA ([1]; 45 min): 2186985.5 | HPLC AREA ([1]; 60 min): 2194185.5 | HPLC AREA ([1]; 75 min): 2559208.5 | HPLC AREA ([1]; 90 min): 2263081.5 | half-life ([1]; rat, rat whole blood (EDTA), 37° C.): > 1.5 h

NCCCC[C@H](N)C(=O)N[C@@H](CC(N)=O)C(=O)N1CCC[C@H]1C(=O)N[C@@H](Cc1ccc(O)cc1)C(=O)O [PEPTIDE #1, H-Lys-Asn-Pro-Tyr-OH] (H-KNPY-OH)
activation of T and B cells in spleen in vivo/ex vivo (in words) (T and B cells in spleen): activate T and B cells | NK cell assay, % response of IL-2 (NK cells; 50 mg/kg): 48.34% | NK cell assay, Average (NK cells; 50 mg/kg): 2.52 | NK cell assay, % response of CTL (NK cells; 50 mg/kg): 112.48% | NK cell assay, % response of IL-2 (NK cells; 100 mg/kg): 69.48% | NK cell assay, Average (NK cells; 100 mg/kg): 3.63 | NK cell assay, % response of CTL (NK cells; 100 mg/kg): 161.66% | NK cell assay, % response of IL-2 (NK cells; 200 mg/kg): 53.13% | NK cell assay, Average (NK cells; 200 mg/kg): 2.77 | NK cell assay, % response of CTL (NK cells; 200 mg/kg): 123.63% | NK cell assay, % response of IL-2 (NK cells; 300 mg/kg): 58.49% | NK cell assay, Average (NK cells; 300 mg/kg): 3.05 | NK cell assay, % response of CTL (NK cells; 300 mg/kg): 136.11%
